Test system: 885724-159-R-J1-PDC KRAS PDC multicell spheroid viability
Test: Anticancer human tumor 885724-159-R-J1-PDC patient-derived pancreatic adenocarcinoma cell line growth inhibition [KRAS2]
Settings: for IC50: curve of first compound; for viability, T/C: stronger effect = lower value
Excerpt: Multicellular complex tumor spheroid response to RAS pathway inhibitors in combination with a targeted agents in patient-derived cell lines with oncogenic KRAS variants from multiple cancer types
A high-throughput screen of multi-cell type tumor spheroids was designed to identify active combinations of targeted small molecules and KRAS pathway inhibitors. Complex spheroids include a stromal component modeled by human endothelial cells (HUVEC) and fibroblasts modeled by human mesenchymal stem cells (MSCs). The concentration ranges selected for each drug and investigational agent were based upon clinically achievable concentrations if the clinical Cmax of the agent was known.
Compounds. The drugs and investigational agents: BI-3406 (NSC825286), BAY-293 (NSC824723), batoprotafib (TNO155; NSC825523), sotorasib (AMG 510; NSC818433), MRTX1257 (NSC819558), elimusertib (BAY 1895344; NSC800525), molibresib (GSK525762; NSC774829), temuterkib (LY3214996; NSC803410), venetoclax (NSC766270), alisertib (NSC759677), olaparib (NSC753686), talazoparib (NSC767125), erdafitinib (NSC781556), ipatasertib (NSC767898), cabozantinib (NSC761068), nintedanib (NSC756659), abemaciclib (NSC768073), docetaxel (NSC628503), trametinib (NSC758246), and sapanisertib (NSC764658) were obtained from the National Cancer Institute (NCI) Developmental Therapeutics Program Chemical Repository. The FDA-approved anticancer drug set is available from the Developmental Therapeutics Program. […] The stock solutions were prepared in dimethyl sulfoxide (DMSO, Sigma-Aldrich, St. Louis, MO, cat. D2650) at 800-fold the tested concentration and stored at -70 degrees C prior to their use. All drugs and investigational agents were tested over a range starting from a high concentration at or near the clinical Cmax and decreasing in half-log increments. If the clinical Cmax for an agent had not been determined, the highest concentration tested was 10 microM.
Cell Culture. All cells were maintained in an incubator at 37 degrees C and 5% CO2 with 95% humidity. The PDC lines were cultured according to standard operating procedures established by the NCI PDMR (https://pdmr.cancer.gov/sops/default.htm). Briefly, all PDCs were thawed and cultured in Matrigel-coated flasks prepared with a working solution of 1X Ham's F-12 nutrient mix, without supplementation (Invitrogen, Waltham, MA, cat. 11765054), 100 U/mL penicillin-streptomycin (Invitrogen, cat. 15140122), and 2.5% Matrigel (Corning Inc., Corning, NY, cat. 354248) for the first three passages. All PDCs were cultured in complete DMEM/F-12 media containing advanced DMEM/F-12 (Invitrogen, cat. 12634028), 4.9% defined fetal bovine serum, heat inactivated (HyClone Laboratories Inc., Logan, UT, cat. SH30070.03HI), 389 ng/mL hydrocortisone (Sigma-Aldrich, cat. H4001), 9.7 ng/mL human EGF recombinant protein (Invitrogen, cat. PHG0313), 23.4 microg/mL adenine (Sigma-Aldrich, cat. A2786), 97.3 U/mL penicillin-streptomycin (Invitrogen, cat. 15140122), 1.9 mM L-glutamine (Invitrogen, cat. 25030081), and 9.7 microM Y-27632 dihydrochloride (Tocris Bioscience, Bristol, United Kingdom, cat. 1254). The PDCs were cultured in complete DMEM/F12 media without 9.7 microM Y-27632 dihydrochloride for at least two passages prior to the screen. The established cell line HOP-62 was cultured in RPMI 1640 medium, HEPES (Invitrogen, cat. 22400105) with 10% defined fetal bovine serum (HyClone Laboratories Inc., cat. SH30070.03) and 2 mM L-glutamine (Invitrogen, cat. 25030081). The pooled donor HUVEC were cultured in endothelial cell growth medium 2 (PromoCell, Heidelberg, Germany, cat. C-22011) and the hMSC were cultured in mesenchymal stem cell growth medium 2 (PromoCell, cat. C-28009). For all experiments, HUVEC and hMSC were used at passages </=5, while the malignant cell lines were used at passages </=15. […]

[1] = second compound 0.1 µM, first compound 0.000316 µM
[2] = second compound 0.1 µM, first compound 0.001 µM
[3] = second compound 0.1 µM, first compound 0.00316 µM
[4] = second compound 0.1 µM, first compound 0.01 µM
[5] = second compound 0.1 µM, first compound 0.0316 µM
[6] = second compound 0.1 µM, first compound 0.1 µM
[7] = second compound 0.316 µM, first compound 0.000316 µM
[8] = second compound 0.316 µM, first compound 0.001 µM
[9] = second compound 0.316 µM, first compound 0.00316 µM
[10] = second compound 0.316 µM, first compound 0.01 µM
[11] = second compound 0.316 µM, first compound 0.0316 µM
[12] = second compound 0.316 µM, first compound 0.1 µM
[13] = second compound 1 µM, first compound 0.000316 µM
[14] = second compound 1 µM, first compound 0.001 µM
[15] = second compound 1 µM, first compound 0.00316 µM
[16] = second compound 1 µM, first compound 0.01 µM
[17] = second compound 1 µM, first compound 0.0316 µM
[18] = second compound 1 µM, first compound 0.1 µM
[19] = second compound 3.16 µM, first compound 0.000316 µM
[20] = second compound 3.16 µM, first compound 0.001 µM
[21] = second compound 3.16 µM, first compound 0.00316 µM
[22] = second compound 3.16 µM, first compound 0.01 µM
[23] = second compound 3.16 µM, first compound 0.0316 µM
[24] = second compound 3.16 µM, first compound 0.1 µM
[25] = second compound 10 µM, first compound 0.000316 µM
[26] = second compound 10 µM, first compound 0.001 µM
[27] = second compound 10 µM, first compound 0.00316 µM
[28] = second compound 10 µM, first compound 0.01 µM
[29] = second compound 10 µM, first compound 0.0316 µM
[30] = second compound 10 µM, first compound 0.1 µM
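Note: spheroids exposed to agents for 7 days before readout.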

Compound: CC(C)n1nc(-c2ccc3oc(N)nc3c2)c2c(N)ncnc21 + C=CC(=O)N1CCN(c2nc(=O)n(-c3c(C)ccnc3C(C)C)c3nc(-c4c(O)cccc4F)c(F)cc23)C(C)C1
- IC50 (second compound 0.1 µM): 37 nM
- IC50 (second compound 0.316 µM): 38 nM
- IC50 (second compound 1 µM): 24 nM
- IC50 (second compound 3.16 µM): 13.7 nM
- IC50 (second compound 10 µM): 3.9 nM
- viability, T/C [1]: 97.8%
- viability, T/C [2]: 82.4%
- viability, T/C [3]: 74.6%
- viability, T/C [4]: 61%
- viability, T/C [5]: 50.5%
- viability, T/C [6]: 42.7%
- viability, T/C [7]: 98.8%
- viability, T/C [8]: 82.9%
- viability, T/C [9]: 72.2%
- viability, T/C [10]: 63.9%
- viability, T/C [11]: 51.2%
- viability, T/C [12]: 41.6%
- viability, T/C [13]: 98.4%
- viability, T/C [14]: 77.6%
- viability, T/C [15]: 68.8%
- viability, T/C [16]: 58.3%
- viability, T/C [17]: 47.9%
- viability, T/C [18]: 40.2%
- viability, T/C [19]: 112%
- viability, T/C [20]: 77.4%
- viability, T/C [21]: 68.3%
- viability, T/C [22]: 51.5%
- viability, T/C [23]: 43.7%
- viability, T/C [24]: 40.4%
- viability, T/C [25]: 74.7%
- viability, T/C [26]: 59%
- viability, T/C [27]: 49.9%
- viability, T/C [28]: 46.1%
- viability, T/C [29]: 40.1%
- viability, T/C [30]: 32.9%

Compound: CN(C)C/C=C/C(=O)Nc1cc2c(Nc3ccc(F)c(Cl)c3)ncnc2cc1O[C@H]1CCOC1 + CNCc1ccccc1-c1csc(C(C)Nc2nc(C)nc3cc(OC)c(OC)cc23)c1
- IC50 (second compound 0.1 µM): > 100 nM
- IC50 (second compound 0.316 µM): > 100 nM
- IC50 (second compound 1 µM): > 100 nM
- IC50 (second compound 3.16 µM): 2.35 nM
- IC50 (second compound 10 µM): < 0.316 nM
- viability, T/C [1]: 104%
- viability, T/C [2]: 95.4%
- viability, T/C [3]: 93.2%
- viability, T/C [4]: 89.8%
- viability, T/C [5]: 77.9%
- viability, T/C [6]: 66.7%
- viability, T/C [7]: 108%
- viability, T/C [8]: 107%
- viability, T/C [9]: 86.6%
- viability, T/C [10]: 81.7%
- viability, T/C [11]: 74%
- viability, T/C [12]: 63.4%
- viability, T/C [13]: 109%
- viability, T/C [14]: 104%
- viability, T/C [15]: 94.6%
- viability, T/C [16]: 83.1%
- viability, T/C [17]: 70.3%
- viability, T/C [18]: 67.5%
- viability, T/C [19]: 105%
- viability, T/C [20]: 123%
- viability, T/C [21]: 0.97%
- viability, T/C [22]: 0.27%
- viability, T/C [23]: 71.9%
- viability, T/C [24]: 38%
- viability, T/C [25]: 0.22%
- viability, T/C [26]: 0.26%
- viability, T/C [27]: 0.18%
- viability, T/C [28]: 0.15%
- viability, T/C [29]: 0.22%
- viability, T/C [30]: 0.25%

Compound: O=C(c1cc(Cc2n[nH]c(=O)c3ccccc23)ccc1F)N1CCN(C(=O)C2CC2)CC1 + C=CC(=O)N1CCN(c2nc(=O)n(-c3c(C)ccnc3C(C)C)c3nc(-c4c(O)cccc4F)c(F)cc23)C(C)C1
- IC50 (second compound 0.1 µM): > 10000 nM
- IC50 (second compound 0.316 µM): > 10000 nM
- IC50 (second compound 1 µM): > 10000 nM
- IC50 (second compound 3.16 µM): > 10000 nM
- IC50 (second compound 10 µM): > 10000 nM
- viability, T/C [5]: 117%
- viability, T/C [6]: 115%
- viability, T/C (second compound 0.1 µM, first compound 0.316 µM): 111%
- viability, T/C (second compound 0.1 µM, first compound 1 µM): 113%
- viability, T/C (second compound 0.1 µM, first compound 3.16 µM): 109%
- viability, T/C (second compound 0.1 µM, first compound 10 µM): 94.1%
- viability, T/C [11]: 124%
- viability, T/C [12]: 115%
- viability, T/C (second compound 0.316 µM, first compound 0.316 µM): 115%
- viability, T/C (second compound 0.316 µM, first compound 1 µM): 113%
- viability, T/C (second compound 0.316 µM, first compound 3.16 µM): 108%
- viability, T/C (second compound 0.316 µM, first compound 10 µM): 103%
- viability, T/C [17]: 121%
- viability, T/C [18]: 119%
- viability, T/C (second compound 1 µM, first compound 0.316 µM): 117%
- viability, T/C (second compound 1 µM, first compound 1 µM): 118%
- viability, T/C (second compound 1 µM, first compound 3.16 µM): 114%
- viability, T/C (second compound 1 µM, first compound 10 µM): 100%
- viability, T/C [23]: 114%
- viability, T/C [24]: 119%
- viability, T/C (second compound 3.16 µM, first compound 0.316 µM): 122%
- viability, T/C (second compound 3.16 µM, first compound 1 µM): 117%
- viability, T/C (second compound 3.16 µM, first compound 3.16 µM): 111%
- viability, T/C (second compound 3.16 µM, first compound 10 µM): 93.5%
- viability, T/C [29]: 86%
- viability, T/C [30]: 84.8%
- viability, T/C (second compound 10 µM, first compound 0.316 µM): 85.4%
- viability, T/C (second compound 10 µM, first compound 1 µM): 79%
- viability, T/C (second compound 10 µM, first compound 3.16 µM): 90.9%
- viability, T/C (second compound 10 µM, first compound 10 µM): 71%

Compound: CC(C)n1nc(-c2ccc3oc(N)nc3c2)c2c(N)ncnc21
- viability, T/C (compound 0.000316 µM): 95.6% [middle of 5 runs]
- viability, T/C (compound 0.001 µM): 74.4% [middle of 5 runs]
- viability, T/C (compound 0.00316 µM): 65.9% [middle of 5 runs]
- viability, T/C (compound 0.01 µM): 61.9% [middle of 5 runs]
- viability, T/C (compound 0.0316 µM): 51% [middle of 5 runs]
- viability, T/C (compound 0.1 µM): 46.5% [middle of 5 runs]

Reference: PubChem BioAssay AID1963861 (Molecular Pharmacology Branch, DTP, NCI, 2024)
